The values that follow come from patent publication US12527773B2, “Flavi-block: a pan-flavivirus inhibitor” (Baden-Württemberg Stiftung GmbH, priority 2020, dated 2026).

The structures appear in SMILES notation. Where two headings read alike, the source gives them in different places.

One series relates to DENV-2. The experiment in a line: Antiviral effect on DENV (virus release and entry), Vero cells, MOI 5. The class given is cell-based, Dengue virus. Particulars: co-treatment. How it is done:
(A) Vero cells were seeded and infected with DENV-2 at a multiplicity of infection (MOI) of 5. For co-treatment cells were incubated with a premixed suspension of drug and virus, for post-treatment with virus only for 2 h. Cells were subsequently washed with PBS and cultivated for co-treatment in DMEM supplemented with 2% FCS, for post-treatment in DMEM supplemented with 2% FCS spiked with the indicated concentrations of C10. The drug containing medium for post-treated cells was removed after 2 h and replenished with fresh DMEM supplemented with 2% FCS. 24 h after infection the supernatants were used for a Plaque assay. (B) RNA extraction; n=3 with SEM. (C, D) Cells were lysed for Western blot analysis using antibodies against viral proteins NS3 and NS5 and tubulin as a loading control.
For this purpose, Vero cells were plated and infected with DENV-2 at an infection multiplicity (MOI) of 5. For co-treatment, the cells were incubated with a previously mixed suspension of active substance and virus, for post-treatment with the virus alone, each for 2 h. The cells were then washed with PBS and cultivated for co-treatment in DMEM with 2 % FCS, for post-treatment in DMEM with 2 % FCS mixed with the indicated concentrations of compound C10. For the post-treated cells, the medium containing the active substance was removed after 2 h and replaced by fresh medium with 2 % FCS. […]

The subject of the next series is ZIKV. As to the kind of experiment: RT-qPCR analysis of virus genomes, ZIKV. The class given is cell-based. Particulars: Zika virus. On the procedure:
Vero cells were infected with ZIKV at an MOI of 1 for 2 h (post infection), after which virus was removed, and fresh maintenance medium containing 2% FCS together with the indicated concentration of C10 added. For co-treat condition, Vero cells were infected with ZIKV at an MOI of 1 in the presence of C10 for 2 h, followed by removal of the virus/C10 inoculums, and addition of fresh 2% fetal calf serum maintenance medium. […] Results represent the mean ±SD for duplicate wells from a single assay (cf. Table 2 for pooled data).
Viral RNA was extracted using Isolate II RNA extraction kit (Bioline), and the absolute number of RNA copies determined by Taqman One Step RT-qPCR (Applied Biosystems) by extrapolation from a standard curve generated from in vitro—transcribed virus RNA.
It was decided to test the ability of C10 to inhibit the flaviviruses DENV1-4, KUNV and ZIKV, in addition to the paramyxovirus RSV, as a control.
A general note: Quantitative PCR measures a nucleic acid by following its amplification.

A short description of series [1]: Pharmacokinetic study in Balb/c mice, peroral administration. It is filed as in vivo. Particulars: for Plasma concentration, Group A-D: single animals. How it is done:
Study design, animal selection, handling and treatment were all in accordance with the study protocols and institutional animal care and use guidelines. Male Balb/c mice (9-10 weeks old, body weight 22.3 to 38.1 g and average body weight across all groups 31.4 g, SD=3.20 g) were used in this study. The animals were randomly assigned to the treatment groups before the pharmacokinetic study; all animals were fasted for 4 h before dosing. Six time points for PO (15, 30, 60, 120, 240 and 360 min) and IV (5, 15, 30, 60, 120 and 240 min) routes were used in this pharmacokinetic study. Each of the PO and IV time point treatment groups included 4 animals. There was also control group of 2 animals. Dosing was done according to the treatment schedules outlined in Table 3. Mice were injected IV with 2,2,2-tribromoethanol at the dose of 150 mg/kg prior to taking blood. Blood collection was performed from the orbital sinus in microtainers containing K2EDTA. Animals were sacrificed by cervical dislocation after blood samples collection. All samples were immediately prepared, flash-frozen and stored at −70° C. until subsequent bioanalysis.
Samples Processing Plasma samples ([…]) were mixed with […] of IS solution. After mixing by pipetting and centrifuging for 4 min at 6,000 rpm, […] of each supernatant was injected into LC-MS/MS system. Solution of compound IS-02-03 (200 ng/ml in acetonitrile-methanol mixture, 1:1, v/v) was used as internal standard (IS) for quantification of C10 in plasma samples. Samples Analysis The concentrations of C10 were determined using high performance liquid chromatography/tandem mass spectrometry (HPLC-MS/MS). Shimadzu H PLC system comprised of 2 isocratic pumps LC-10Advp, an autosampler SIL-HTc, a sub-controller FCV-14AH and a degasser DGU-14A. Mass spectrometric analysis was performed using an API 3000 (triple-quadrupole) instrument from AB Sciex (Canada) with an electro-spray (ESI) interface. The data acquisition and system control was performed using Analyst 1.5.2 software from AB Sciex. HPLC-MS/MS Conditions
The pharmacokinetic data analysis was performed using non-compartmental, bolus injection or extravascular input analysis models in WinNonlin 5.2 (PharSight). Data below LLOQ were presented as missing to improve validity of T1/2 calculations. No outlier data points were removed from calculations. The bioavailability for the peroral route was calculated as: […]

By EC50 is commonly meant the concentration giving half of the maximal effect. Regarding `CCN1/C(=C\C=C\c2sc3cc(NC(C)=O)ccc3[n+]2CC)Sc2cc(NC(C)=O)ccc21.[I-]` [C10, 6-acetamido-2-((1E,3E)-3-(6-acetamido-3-ethylbenzo[d]thiazol-2(3H)-ylidene)prop-1-en-1-yl)-3-ethylbenzo[d]thiazol-3-ium iodide], the “viral proteins in cells (Western blot NS3, NS5)” value in the series with DENV-2 (1 μM, compared to DMSO) was “viral proteins are detectable in the cells, albeit at lower amounts”. For the same compound, in the series with DENV-2 (10 μM), the “productive infection (Western blot NS3, NS5)” value is “prevents a productive infection of the cells”. For the same compound, the half-maximal effective concentration (EC50) with ZIKV (read-out: EC50 from RT-qPCR analysis, ZIKV, c.t.) stood at 440 nM; with ZIKV (read-out: EC50 from RT-qPCR analysis, ZIKV, p.i.) it was 1130 ± 1100 nM. For the same compound, the oral bioavailability entry in series [1] (PO 10 mg/kg versus IV 5 mg/kg) is “zero”. Moreover, the “Plasma concentration, Mean” value in series [1] (PO 10 mg/kg, 15 min) is 0 ng(ml); in series [1] (PO 10 mg/kg, 30 min) it was 0 ng(ml); in series [1] (PO 10 mg/kg, 60 min) it was 0 ng(ml); in series [1] (PO 10 mg/kg, 120 min) it was 0 ng(ml); in series [1] (PO 10 mg/kg, 240 min), 0 ng(ml); in series [1] (PO 10 mg/kg, 360 min), 0 ng(ml). Moreover, the “Plasma concentration, Group A-D” value in series [1] (PO 10 mg/kg, 15 min, below LLOQ 10 ng/ml designated as zero) is 0 ng(ml); in series [1] (PO 10 mg/kg, 30 min, below LLOQ designated as zero), 0 ng(ml); in series [1] (PO 10 mg/kg, 60 min, below LLOQ designated as zero), 0 ng(ml); in series [1] (PO 10 mg/kg, 120 min, below LLOQ designated as zero) it was 0 ng(ml); in series [1] (PO 10 mg/kg, 240 min, below LLOQ designated as zero), 0 ng(ml); in series [1] (PO 10 mg/kg, 360 min, below LLOQ designated as zero) it was 0 ng(ml). For the same compound, the “plasma levels following PO dosing” value in series [1] (PO 10 mg/kg, LLOQ 10 ng/ml) is “below the lower limit of quantitation”.
